The test system of data set [1] is NIH-3T3 TrkB-expressing cell line. Kind of data set: CellTox Green cytotoxicity assay in NIH-3T3 cells stable transfected with TrkB under serum deprivation. Format: cell-based. To be noted: compound 1 μM, 24 h, after 24 h serum starvation; BDNF 500 ng/mL as control. How it is done:
We tested compounds on three cellular systems, primary cortical astrocytes from 2-day-old mice (as a natively TrkB-expressing neuronal population), and NIH-3T3 fibroblasts stable transfected with TrkB and NIH-3T3 naïve cells. Cells were grown with high-glucose DMEM medium supplemented with 10% fetal bovine serum (FBS), 100 μg/mL streptomycin, and 100 units/mL penicillin at 37°C in a humidified 5% CO2 atmosphere. Phosphorylation results presented here are in primary astrocytes, and cell toxicity assay results are in NIH-3T3 stable transfected cells with TrkB.
NIH-3T3 stable transfected cells with TrkB were plated in 96-well plates at a density of 10,000 cells/well, before carrying out serum starvation for 24 h. Cells were then treated for 24 h with either BDNF at 500 ng/mL (control) or the compounds at 1 μM.
For the cell toxicity assay, we used CellTox™ Green Dye (2,000 × , Promega) for the visualization of dead cells and Hoechst 33,342 solution (10,000 × ) for total cells. A ZEISS Axio Vert.A1 microscope was used for image capture, and the ImageJ software (https://imagej.nih.gov/ij/) was used for analysis. The number of CellTox positive cells was normalized against the total number of cells observed in each image.
The NIH-3T3 TrkB cell line, which is stable and transfected to specifically express the TrkB receptor, was used for the screening of the new compounds for their ability to protect cells from serum deprivation-induced apoptosis through the activation of the TrkB receptor. Cell death was induced by serum deprivation for 24 h and then BDNF (500 ng/mL), the native neurotrophin ligand of the TrkB receptor, or compounds ENT-A007, ENT-A009, ENTA025, ENT-A026, ENT-A033, ENT-A034, ENT-A035, ENT-A036, ENT-A037, ENT-A046, ENT-A047, ENT-A055, and ENT-A056 (1 μM) were added to the media for 24 h.

Another data set deals with PC12 cells. Kind of data set: CellTox assay, survival of PC12 cells under serum deprivation. Format: cell-based. The conditions noted are these: for protection of PC12 cells from serum deprivation-induced cell death (CellTox): compound 500 nM, 24 h, after 4 h serum starvation, NGF 100 ng/mL as control (Figure 9); for protection of PC12 cells from serum deprivation-induced death (CellTox): compound 1 μM, NGF 100 ng/mL as control (Figure 10). How it is done:
PC12 cells were obtained from LGC Promochem and cultured under specified conditions. Cells were grown in DMEM medium (Thermo Fischer Scientific, cat# 10566016) containing 10% horse serum (Thermo Fischer Scientific, cat# 16050122), 5% fetal bovine serum (Thermo Fischer Scientific, cat# 10270106), 100 units/mL penicillin, and 0.1 mg/mL streptomycin (Thermo Fischer Scientific, cat# 15140122) at 5% CO2 and 37°C. Cells were used between passages 5 and 20.
CellTox assay (G8742, Promega, Leiden, Belgium) was used to assess the survival of PC12 cells under serum deprivation conditions. PC12 cells were plated in 96-well plates, starved from serum for 4 h, and subsequently treated with NGF (100 ng/mL) or compound (500 nM) for 24 h. CellTox assay reagents and Hoescht (1:10,000, H3570, Invitrogen, Massachusetts, USA) were then added to each well for 30 min, and then, cells were imaged with a Zeiss AXIO Vert A1 fluorescent microscope. CellTox positive cells were normalized to the total number of cells for each image.
Initially, we tested compounds ENT-A002, ENT-A007, ENT-A009, ENTA025, ENT-A026, ENT-A033, ENT-A034, ENT-A035, ENT-A036, ENT-A037, ENT-A046, ENT-A047, ENT-A055, and ENT-A056 for their ability to protect PC12 cells from serum deprivation-induced cell death as well as for their ability to activate TrkA downstream pro-survival signaling kinases Akt and Erk1/2 (Figures 9A–C). We opted to employ PC12 cells, which express receptors TrkA and p75 and have been routinely used for investigating NGF-TrkA signaling. PC12 cells were subjected to a period of nutrient deprivation (without fetal bovine serum and horse serum in their culture medium) for 4 h. Following this, NGF (100 ng/mL) or one of the compounds (500 nM or 1 μM) was administered and allowed to interact with the cells for 24 h. Following that, CellTox and Hoescht dyes were added and cells were imaged to assess cell death. Control cases involved cells cultured in full medium (serum), cells under starvation conditions (serum-free), and cells under starvation conditions treated with DMSO (SF+DMSO).

Data set [2] can be described thus: Metabolic stability in pooled human liver microsomes. Format: in vitro ADME. The conditions noted are these: 1 μM; for residual of time zero: pooled human liver microsomes 0.5 mg/mL, t = 60 min, NADPH; for parent structure loss (depletion) class: pooled human liver microsomes, 60 min. The procedure: For metabolic stability assessment, pooled human liver microsomes were employed at 0.5 mg/mL. Incubation conditions were optimized to ensure linear metabolite formation with respect to protein concentration and reaction time. All test compounds were assessed at 1 μM based on our ADMET standard operating procedures and protocols, also published previously (1 μM was selected based on our ADMET standard operating procedures and protocols also published previously) (Rogdakis et al., [2022]; Yilmaz et al., [2022]). Approximately 1 mM of NADPH served as a cofactor. Reactions took place in triplicates at 37°C. Negative and positive controls (low vs. rapid clearance) were included for low vs. rapid clearance. After 60 min, reactions were terminated.
Parent structure loss is classified as very slow (<5%), slow (5–19%), moderate (20–50%), fast (50–80%), or very fast (>80%). Such categories have been defined according to set criteria, namely, high metabolism (t1/2 value of <30 min), moderate metabolism (30 min <t1/2 value of <60 min), and low metabolism (t1/2 value of >60 min) (EMA, [2012], [2013]; FDA, [2020]).
A general note: Liver microsomes are a subcellular fraction often used to study metabolism.

Entries after “also recorded” stand apart in the source; their conditions may differ. Where only a bound is given, the exact number is not on record here.

Data on 15 compounds can be found in article PMC10568017, “A quest for the stereo-electronic requirements for selective agonism for the neurotrophin receptors TrkA and TrkB in 17-spirocyclic-dehydroepiandrosterone derivatives” (Frontiers in Molecular Neuroscience, 2023).

Consider `C[C@]12CC[C@H](O)CC1=CC[C@@H]1[C@@H]2CC[C@@]2(C)[C@H]1CC[C@@]21CC=CCO1` [ENT-A002, (3S,17R)-3′,6′-dihydrospiro[5-androstene-17,2′-pyran]-3-ol], for which the “protection of NIH-3T3-TrkB cells from serum deprivation-induced cell death (CellTox)” value (from here on “protection of NIH-3T3-TrkB cells”) in data set [1] is listed as “did not show any protective effects”. In addition, the “protection of PC12 cells from serum deprivation-induced cell death (CellTox)” value in the data set on PC12 cells was “did not show any protective effects”.
With `C[C@]12CC[C@H](O)CC1=CC[C@@H]1[C@@H]2CC[C@@]2(C)[C@H]1CC[C@@]21CC=C(CO)CO1` [ENT-A008], the “protection of NIH-3T3-TrkB cells” value in data set [1] was “none of these compounds provided any protective effects”. Further, the “protection of PC12 cells from serum deprivation-induced cell death (CellTox)” value with PC12 cells is reported as “none of these compounds provided any protective effects”.
Regarding `COC(=O)CSCC1=CCC2(CCC3C4CC=C5CC(O)CCC5(C)C4CCC32C)OC1` [ENT-A026, Methyl (3S,17R)-3-hydroxy-3’,6’-dihydrospiro[5-androstene-17,2’-pyran]-5’-yl-methylthio acetate], the “protection of NIH-3T3-TrkB cells” value in data set [1] was “none of these compounds provided any protective effects”. Moreover, in the data set on PC12 cells, the “protection of PC12 cells from serum deprivation-induced cell death (CellTox)” value was “none of these compounds provided any protective effects”.
`CC12CCC(O)CC1=CCC1C2CCC2(C)C1CCC21CC=C(CC#N)CO1` [ENT-A033, (3S,17R)-3-hydroxy-3′,6′-dihydrospiro[5-androstene-17,2′-pyran]-5′-yl-acetonitrile]: in data set [1], the “protection of NIH-3T3-TrkB cells” value is reported as “none of these compounds provided any protective effects”. Moreover, the “protection of PC12 cells from serum deprivation-induced cell death (CellTox)” value in the data set with PC12 cells is listed as “none of these compounds provided any protective effects”.
On to `C[C@]12CC[C@H](O)CC1=CC[C@@H]1[C@@H]2CC[C@@]2(C)[C@H]1CC[C@@]21CC=C(CF)CO1` [ENT-A034], for which, in data set [1], the “protection of NIH-3T3-TrkB cells” value is “none of these compounds provided any protective effects”. Further, in the data set with PC12 cells, the “protection of PC12 cells from serum deprivation-induced cell death (CellTox)” value is given as “none of these compounds provided any protective effects”.
With `COc1ccc(COCC2=CC[C@@]3(CC[C@H]4[C@@H]5CC=C6C[C@@H](O)CC[C@]6(C)[C@H]5CC[C@@]43C)OC2)cc1` [ENT-A035], the “protection of NIH-3T3-TrkB cells” value in data set [1] is reported as “none of these compounds provided any protective effects”. Also, in the data set with PC12 cells, the “protection of PC12 cells from serum deprivation-induced cell death (CellTox)” value was “none of these compounds provided any protective effects”.
As usually defined, the melting point is the temperature of the solid-liquid transition. Take `C[C@]12CC[C@H](O)CC1=CC[C@@H]1[C@@H]2CC[C@@]2(C)[C@H]1CC[C@@]21CC=C(Cn2cc(CO)nn2)CO1` [ENT-A037, (3S,17R)-5′-[(4-(hydroxymethyl)-1H-1,2,3-triazol-1-yl)methyl]-3′,6′-dihydrospiro[5-androstene-17,2′-pyran]-3-ol]: the melting point was in the range of 202 to 204 °C.
For `C[C@]12CC[C@H](O)CC1=CC[C@@H]1[C@@H]2CC[C@@]2(C)[C@H]1CC[C@@]21CC=C(Cn2cc(CC3CCCCC3)nn2)CO1` [ENT-A047, (3S,17R)-5′-[(4-(cyclohexylmethyl)-1H-1,2,3-triazol-1-yl)methyl]-3′,6′-dihydrospiro[5-androstene-17,2′-pyran]-3-ol], the melting point is 181 °C (dec.).
Regarding `CC12CCC(O)CC1=CCC1C2CCC2(C)C1CCC21CC=C(C=C2CCC2)CO1` [ENT-A065, (3S,17R)-5′-(cyclobutylidenemethyl)-3′,6′-dihydrospiro[5-androstene-17,2′-pyran]-3-ol], the “protection of PC12 cells from serum deprivation-induced death (CellTox)” value in the data set on PC12 cells is “promote cell survival as well as NGF does under stress conditions”.
For the compound `CC12CCC(O)CC1=CCC1C2CCC2(C)C1CCC21CC=C(C=CBr)CO1` [ENT-A066, (3S,17R)-5′-(2-bromovinyl)-3′,6′-dihydrospiro[5-androstene-17,2′-pyran]-3-ol], the “protection of PC12 cells from serum deprivation-induced death (CellTox)” value in the data set with PC12 cells is recorded as “found to promote PC12 cell survival during stress conditions; also recorded: promote cell survival as well as NGF does under stress conditions”. Further, in data set [2], the “residual of time zero” value is more than 95% and the “parent structure loss (depletion) class” value is “very slow (very slow (<5%))”.
As to `CC=CC1=CCC2(CCC3C4CC=C5CC(O)CCC5(C)C4CCC32C)OC1` [ENT-A068, (E, Z) (3S,17R)-5′-(prop-1-en-1-yl)-3′,6′-dihydrospiro[5-androstene-17,2′-pyran]-3-ol], in the data set with PC12 cells, the “protection of PC12 cells from serum deprivation-induced death (CellTox)” value was “found to promote PC12 cell survival during stress conditions; also recorded: promote cell survival as well as NGF does under stress conditions”.
As to `CCC1CCC2(CCC3C4CC=C5CC(O)CCC5(C)C4CCC32C)OC1` [ENT-A069, (3S,17R)-5′-(ethyl)-3′,6′-tetrahydrospiro[5-androstene-17,2′-pyran]-3-ol], in the data set with PC12 cells, the “protection of PC12 cells from serum deprivation-induced death (CellTox)” value was “found to promote PC12 cell survival during stress conditions; also recorded: promote cell survival as well as NGF does under stress conditions”. In addition, in data set [2], the “residual of time zero” value was determined as 95% and the “parent structure loss (depletion) class” value is given as “slow (slow (5–19%))”.
As for `CCC1=CCC2(CCC3C4CC=C5CC(O)CCC5(C)C4CCC32C)OC1` [ENT-A070, (3S,17R)-5′-ethyl-3′,6′-dihydrospiro[5-androstene-17,2′-pyran]-3-ol], the “protection of PC12 cells from serum deprivation-induced death (CellTox)” value in the data set with PC12 cells is on record as “found to promote PC12 cell survival during stress conditions; also recorded: promote cell survival as well as NGF does under stress conditions”. In data set [2], the “residual of time zero” value is on record as more than 95% and the “parent structure loss (depletion) class” value was “very slow (very slow (<5%))”.
`C[C@]12CC[C@H](O)CC1=CC[C@@H]1[C@@H]2CC[C@@]2(C)[C@H]1CCC21CC(=CC#N)C1` (stereo partly drawn) [ENT-A077] registered a melting point of 161 to 163 °C.
The same measure, in the same setting: with `C[C@]12CC[C@H](O)CC1=CC[C@@H]1[C@@H]2CC[C@@]2(C)[C@H]1CCC21CC(=CC(=O)O)C1` (stereo partly drawn) [ENT-A080] the figure was 221 °C (dec.).
